Reference: paper PMC9662648 (Journal of the American Chemical Society, 2022)

Tested on: SARS-CoV-2 (USA-WA1/2020/NR-52281)
Assay: Live native virus infection of A549-hACE2 versus A549-hACE2/TMPRSS2 cells
Assay type: cell-based
Details: virus 1 h, then compound

SMILES	efficacy against live virus upon overexpression of TMPRSS2
CCOC(=O)C=CC(CC1CCNC1=O)NC(=O)C(Cc1ccccc1)NC(=O)C(N)Cc1ccccc1 (centres unmarked) [SM141]	only a partial loss in efficacy
CCOC(=O)C=CC(CC1CCNC1=O)NC(=O)C(Cc1ccccc1)NC(=O)C(Cc1ccc(F)cc1)NC(=O)OC(C)(C)C (centres unmarked) [SM142]	only a partial loss in efficacy
